Where a name gives a salt, the structure may show the parent alone.
What was measured:
hP2X3 receptor = biological target: T1, hP2X3 receptor (Homo sapiens, UniProt P56373); experiment: Antagonistic activity against hP2X3 receptor by FLIPR calcium flow assay; type: cell-based; conditions: for IC50: human cells stably transfected with hP2X3, agonist α,β-meATP 400 nM; for antagonistic activity against hP2X3 receptor compared with Reference compound 1 (in words): vs Reference compound 1
T1 construct: expressed in transfected cells
T1 sequence (P56373 1-397): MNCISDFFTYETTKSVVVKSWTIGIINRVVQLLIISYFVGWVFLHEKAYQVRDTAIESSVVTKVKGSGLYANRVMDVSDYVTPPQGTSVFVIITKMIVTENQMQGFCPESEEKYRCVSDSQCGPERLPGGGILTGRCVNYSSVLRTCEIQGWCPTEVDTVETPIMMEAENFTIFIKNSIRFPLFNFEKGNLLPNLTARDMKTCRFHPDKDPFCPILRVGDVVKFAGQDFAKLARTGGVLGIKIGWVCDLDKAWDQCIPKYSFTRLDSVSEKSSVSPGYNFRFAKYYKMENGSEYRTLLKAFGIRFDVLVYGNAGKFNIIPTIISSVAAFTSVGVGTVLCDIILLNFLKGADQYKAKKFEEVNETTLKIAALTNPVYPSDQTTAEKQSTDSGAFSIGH
Method: The antagonistic activity of hP2X3 antagonists against hP2X3 receptor was evaluated by means of FLIPR Calcium 4 Assay Kit (Molecular Devices, R8141) and FLIPR TETRA instrument (Molecular Devices, 0296) by detecting calcium flow signals. 24h before the experiment, human cells, which had been stably transfected with hP2X3 receptors, were plated on a 384-well plate at 2×10^5 cells/mL, with 50 μL of cell suspension per well, and the plate was cultured in an incubator (37° C., 5% CO2) for 16 h to 24 h. The test compound solution (20 to 50 mM DMSO stock solution) with a concentration of 180 times the required concentration was prepared using DMSO. The stock solution was added to the 384-well plate at 500 nL per well, supplemented with 30 μL of FLIPR Assay buffer (1×HBSS+2 mM CaCl2 20 mM HEPES containing 1.26 mM Ca^2+). The 384-well plate was shaken for 20 to 40 min to mix evenly. An agonist (α, β-meATP) with a concentration of 3 times the required concentration (required final concentration was 400 nM) was prepared with FLIPR Assay buffer, and was added to another 384-well plate at 45 μL per well. The culture plate, on which the cells were plated one day ago, was taken, the cell supernatant was sucked and discarded, each well was added with 30 μL of Dye (FLIPR® Calcium 4 Assay Kit, diluted with FLIPR buffer), and then the plate was incubated for 1h. 15 μL of compound was added to each well of cells (using FLIPR sample injector). After 15 minutes, 22.5 μL of the agonist was added to each well, and the fluorescence signal (exciting light wavelength ranging from 470 nm to 495 nm, and emission wavelength ranging from 515 nm to 575 nm) was detect. […] An inhibition effect curve of the compound was fitted on the software GraphpadPrism6, and the IC50 value was calculated.

rat taste = experiment: Taste test in rat (water vs 0.3 mM aqueous quinine solution intake); type: in vivo, SD rats; conditions: SD rats, 30 mg/kg i.p, 0.3 mM quinine, 15 min supply half an hour after administration
Method: SD rats were administered with the corresponding compound after 3 days of overnight water prohibition training. Each rat was supplied with 1 bottle of water and 1 bottle of 0.3 mM aqueous quinine solution half an hour after the administration. After 15 min of water supply, the bottles were removed. The intake amount of water and the intake amount of the 0.3 mM aqueous quinine solution were measured, respectively. The taste influence of the compound on SD rats was evaluated based on the difference between the intake amount of water and the intake amount of the aqueous quinine solution.

[1] = Pharmacokinetic assay in mouse; type: in vivo, ICR mice
Method: For a mouse pharmacokinetic assay, male ICR mice (20 g to 25 g) were selected and fasted overnight. Three mice were intragastrically administered with 10 mg/kg of the corresponding compound. The blood of the mice was collected before the administration and at 15 min, 30 min, 1 h, 2 h, 4 h, 8 h, and 24 h after the administration. The blood samples were centrifuged at 4° C. for 6 minutes at 6,800 g, plasma was collected and stored at −80° C.
The supernatant was mixed with 3 times the amount of water, and an appropriate amount of the mixed solution was taken for LC-MS/MS analysis. The primary pharmacokinetic parameters were analyzed by WinNonlin 7.0 software non-atrioventricular model.

[2] = system: histamine/citric acid-stimulated cough in guinea pig; experiment: Efficacy test for histamine/citric acid-stimulated cough in guinea pig; type: in vivo; conditions: guinea pigs, nasal drops, 0.17 mg/kg to 1.5 mg/kg, histamine/citric acid stimulation
Method: Guinea pigs were adaptively fed for 3 days to 7 days before being grouped. When the body weight of the guinea pigs reached 300 g to 400 g, they were numbered and randomly grouped.
Compounds or an excipient were administered to guinea pigs by nasal drops 0.25 hour to 24 hours before the start of the cough assessment. The administration dose of the test sample ranged from 0.17 mg/kg to 1.5 mg/kg. For the cough assessment, the guinea pigs were placed in a whole-body volume scan box for adaptation, and then, they were provided with histamine nebulization and then citric acid nebulization. […]
The experimental data was statistically analyzed by one-way ANOVA to analyze and compare data of the various groups. The statistical analysis result p<0.05 was regarded as a significant difference. The t-test was employed for difference comparison between any two.

[3] = mouse, plasma, po, male ICR mice, intragastric administration, 10 mg/kg

Row | IC50 (hP2X3 receptor) [nM] | SMILES | further results
1 | 305 | Cc1cnc(-c2cc(OC[C@@H]3COCCN3C)cc(C(=O)N[C@H](C)c3cnc(C(F)(F)F)nc3)c2F)s1 [Compound I-9, 2-fluoro-5-(((S)-4-methylmorpholin-3-yl)methoxy)-3-(5-methylthiazol-2-yl)-N—((R)-1-(2-(trifluoromethyl)pyrimidin-5-yl)ethyl)benzamide] | –
2 | 50 | Cc1cnc(-c2cc(OC(C)C(C)O)cc(C(=O)N[C@H](C)c3cnc(C(F)(F)F)nc3)c2F)s1 (single isomer, unassigned) [Compound I-5] | antagonistic activity against hP2X3 receptor compared with Reference compound 1 (in words) (hP2X3 receptor): better antagonistic activity
3 | 168 | Cc1cnc(-c2cc(C(=O)N[C@H](C)c3cnc(C(F)(F)F)nc3)cc(O[C@@H]3CCOC3)c2F)s1 [Compound I-3, 4-fluoro-3-(5-methylthiazol-2-yl)-5-(((R)-tetrahydrofuran-3-yl)oxy)-N—((R)-1-(2-(trifluoromethyl)pyrimidin-5-yl)ethyl)benzamide] | –
4 | 433 | Cc1cnc(-c2cc(OC3CCN(C)CC3)cc(C(=O)N[C@H](C)c3cnc(C(F)(F)F)nc3)c2F)s1 [Compound I-16, (R)-2-fluoro-5-((1-methylpiperidin-4-yl)oxy)-3-(5-methylthiazol-2-yl)-N-(1-(2-(trifluoromethyl)pyrimidin-5-yl)ethyl)benzamide] | –
5 | 298 | Cc1cnc(-c2cc(O[C@@H]3CCOC3)c(F)c(C(=O)N[C@H](C)c3cnc(C(F)(F)F)nc3)c2)s1 [Compound I-2, 2-fluoro-5-(5-methylthiazol-2-yl)-3-(((R)-tetrahydrofuran-3-yl)oxy)-N—((R)-1-(2-(trifluoromethyl)pyrimidin-5-yl)ethyl)benzamide] | –
6 | 388 | Cc1cnc(-c2cc(OC3CCNCC3)cc(C(=O)N[C@H](C)c3cnc(C(F)(F)F)nc3)c2F)s1 [Compound I-17, (R)-2-fluoro-5-((1-piperidin-4-yl)oxy)-3-(5-methylthiazol-2-yl)-N-(1-(2-(trifluoromethyl)pyrimidin-5-yl)ethyl)benzamide] | –
7 | 1360 | Cc1cnc(-c2cc(OCC3CC3)cc(C(=O)N[C@H](C)c3cnc(C(F)(F)F)nc3)c2F)s1 [Compound I-15, (R)-5-(cyclopropylmethoxy)-2-fluoro-3-(5-methylthiazol-2-yl)-N-(1-(2-(trifluoromethyl)pyrimidin-5-yl)ethyl)benzamide] | –
8 | 99 | Cc1cnc(-c2cc(OC3COC3)cc(C(=O)N[C@H](C)c3cnc(C(F)(F)F)nc3)c2F)s1 [Compound I-14, (R)-2-fluoro-3-(5-methylthiazol-2-yl)-5-(oxetane-3-yloxy)-N-(1-(2-(trifluoromethyl)pyrimidin-5-yl)ethyl)benzamide] | antagonistic activity against hP2X3 receptor compared with Reference compound 1 (in words) (hP2X3 receptor): better antagonistic activity
9 | 63 | Cc1cnc(-c2cc(OC(C)C(C)O)cc(C(=O)N[C@H](C)c3cnc(C(F)(F)F)nc3)c2F)s1 (single isomer, unassigned) [Compound I-4] | antagonistic activity against hP2X3 receptor compared with Reference compound 1 (in words) (hP2X3 receptor): better antagonistic activity
10 | 373 | [2H]C([2H])([2H])N1CCO[C@@H](COc2cc(C(=O)N[C@H](C)c3cnc(C(F)(F)F)nc3)c(F)c(-c3ncc(C)s3)c2)C1 [Compound I-20, 2-fluoro-5-(((R)-4-(methyl-d3)morpholin-2-yl)methoxy)-3-(5-methylthiazol-2-yl)-N—((R)-1-(2-(trifluoromethyl)pyrimidin-5-yl)ethyl)benzamide] | –
11 | 448 | Cc1cnc(-c2cc(OC[C@H]3CNCCO3)cc(C(=O)N[C@H](C)c3cnc(C(F)(F)F)nc3)c2F)s1 [Compound I-18, 2-fluoro-3-(5-methylthiazol-2-yl)-5-(((R)-morpholin-2-yl)methoxy)-N—((R)-1-(2-(trifluoromethyl)pyrimidin-5-yl)ethyl)benzamide hydrochloride] | –
12 | 271 | CC(O)C(C)Oc1cc(C(=O)N[C@H](C)c2cnc(C(F)(F)F)nc2)c(F)c(-c2ncc(Cl)s2)c1 (stereo partly drawn) [Compound I-7, 3-(5-chlorothiazol-2-yl)-2-fluoro-5-((cis-3-hydroxybutan-2-yl)oxy)-N—((R)-1-(2-(trifluoromethyl)pyrimidin-5-yl)ethyl)benzamide] | –
13 | 310 | Cc1cnc(-c2cc(OC[C@H]3CN(C)CCO3)cc(C(=O)N[C@H](C)c3cnc(C(F)(F)F)nc3)c2F)s1 [Compound I-19, 2-fluoro-5-(((R)-4-methylmorpholin-2-yl)methoxy)-3-(5-methylthiazol-2-yl)-N—((R)-1-(2-(trifluoromethyl)pyrimidin-5-yl)ethyl)benzamide] | –
14 | 63 | Cc1cnc(-c2cc(O[C@@H](C)[C@H](C)O)cc(C(=O)N[C@H](C)c3cnc(C(F)(F)F)nc3)c2F)s1 [Compound I-28, 2-fluoro-5-(((2S, 3S)-3-hydroxybutan-2-yl)oxy)-3-(5-methylthiazol-2-yl)-N—((R)-1-(2-(trifluoromethyl)pyrimidin-5-yl)ethyl)benzamide] | Water/aqueous quinine solution (ratio of water intake to aqueous quinine solution intake) (rat taste): 15.4; pharmacokinetic properties in mouse compared with Reference compound 1 and Reference compound 2 (in words) ([1]; mouse assay, vs Reference compounds 1 and 2): significantly improved pharmacokinetic properties; AUC(0-t) [1, 3]: 8760 ng·h/mL; Cmax [1, 3]: 2400 ng/mL; Tmax [1, 3]: 0.5 h; half-life ([1]; mouse, plasma, po, male ICR mice, intragastric administration, 10 mg/kg, read-out: T½ (converted)): 2.65 h; antagonistic activity against hP2X3 receptor compared with Reference compound 1 (in words) (hP2X3 receptor): better antagonistic activity; Average cough times within 15 min [2]: 9.1; Cough inhibition rate vs. solvent [2]: 65.8%

Source: patent publication US20230227445A1, “BENZAMIDE COMPOUND AND USE THEREOF” (HUMANWELL HEALTHCARE (GROUP) CO., LTD., priority 2020, published 2023)
